Patent US20260337225A1, “SMALL PEPTIDE AND USE THEREOF IN MUCOSAL REPAIR” (FORREST BIO-PHARM (SHENZHEN) CO., LTD., priority 2022, published 2026)
Values joined by “and” are separate entries in the source; they are usually repeats but may differ in a detail not shown here. Identical values can stand only once. No end group written: not given here.

What was measured:
[1] = Animal safety observation: rat body weight; type: in vivo; details: for Rat body weight: 1000 mg/kg daily, intragastric gavage, individual rats, Rat 1-7 = c1-c7, 1000 mg/kg
Description: (§1) The rats were administered with the small peptides via intragastric gavage at doses of 500 mg/kg and 1000 mg/kg daily for 14 days. Changes in body weight were recorded. On day 14, the rats were sacrificed to measure alaninetransaminase (ALT) activity and blood urea nitrogen (BUN) levels in rat serum for assessing whether there was hepatotoxicity and nephrotoxicity in rats.

[2] = test system: mouse model of acute gastric ulcer; assay: Mouse model of acute gastric ulcer (anhydrous ethanol); type: in vivo
Description: In this embodiment, the function of the small peptides obtained in Embodiment 2 was validated using a mouse model of acute gastric ulcer.
Control group (model group): A mouse mode of acute gastric ulcer was constructed using anhydrous ethanol (0.1 mL/10 g) (referring to the literature of Study on Action of kangfuxin Solution on Experimental Gastric ulcer [J]. Chinese Traditional Patent Medicine, 2001, 23(2): 122-124. DOI: 10.3969/j.issn.1001-1528.). After modeling, the mice were administered with an equal volume of saline.
Blank group: The mice were administered with an equal volume of saline.
Drug treatment groups: A mouse mode of acute gastric ulcer was constructed by treating the mouse with anhydrous ethanol (0.1 mL/10 g). At 2 h, 12 h, and 22 h after modeling, the mice were administered with the rice polypeptide mixture (50 mg/kg) as the mixture group, small peptide P1 (0.5 mg/kg) as the P1 group, and small peptide P2 (0.5 mg/kg) as the P2 group, respectively.
Each group consisted of 8 mice. After 24 h of modeling, the mice were sacrificed, to extract the gastric tissue, and observe changes in bleeding points and ulcer area via gastric tissue dissection.

mucosal repair = assay: Screening of active monomers for mucosal repair effects; details: repeated experiments and screening; in words
Source text: The inventors observed the active monomers in the polypeptide mixture of Polimi-1 rice variety by mass spectrometry analysis of the polypeptides from various ordinary rice varieties and Polimi-1 rice variety. The small peptides identical to ordinary rice varieties and with high levels in ordinary rice varieties were excluded by a method of exclusion. Finally, the small peptides with higher levels in Polimi-1 rice variety and lower levels in other ordinary rice varieties were selected for further study, as well as those with higher levels in Polimi-1 rice variety and absent in other ordinary rice varieties. Since peptides with molecular weights below 1500 Daltons were extracted from the mixed polypeptide mixture previously obtained, other peptides above this threshold were excluded.

Rat liver = assay: Animal safety observation: rat liver injury (serum alaninetransaminase activity); type: in vivo; details: 14 days; for Alaninetransaminase Activity, Average / Alaninetransaminase Activity: intragastric gavage, rat serum; for Alaninetransaminase Activity, Average: average of 6 rats, saline average P1 35.83333, P2 30.83333; for Alaninetransaminase Activity: individual rats (Rat 1-6)
Description: as §1

[3] = test system: rat model of chronic gastric ulcer; assay: Rat model of chronic gastric ulcer (anhydrous ethanol followed by aspirin); type: in vivo
Description: The function of the small peptides obtained in Embodiment 2 was validated in the present embodiment by using a rat model of chronic gastric ulcer.
Control group (model group): A rat model of chronic gastric ulcer model was constructed by intragastric administration of anhydrous ethanol (1 mL/200 g), followed by intragastric administration of 200 mg/kg aspirin 2 h later. The rats were administered with aspirin once daily for 4 days. At day 5, the rats were administered with an equal volume of saline.
Blank group: The rats were administered with an equal volume of saline.
Drug treatment groups: A rat model of chronic gastric ulcer was constructed as above-mentioned. At day 5, the rats were respectively administered with the rice polypeptide mixture (50 mg/kg), small peptide P1 (0.5 mg/kg), or small peptide P2 (0.5 mg/kg) twice daily for 3 days. On day 4, the rats were sacrificed and their gastric necropsy was performed.
Positive control group (omeprazole 2.6 mg/kg): A rat model of chronic gastric ulcer was constructed as above. At day 5, the rats were administered with omeprazole (2.6 mg/kg) twice daily for 3 days. On day 4, The rats were sacrificed and their gastric necropsy was performed.
Each group consisted of 10 rats. After 24 h of modeling, the rats were sacrificed to extract the gastric tissue, for measuring gastric pH, and observing changes in ulcer area via gastric tissue dissection. Liver and kidney tissues were collected for pathological section observation to assess drug safety.

[4] = test system: normal human kidney-2 cells (HK-02, HK-2); assay: Nephrotoxicity: cytotoxicity in HK-2 cells by CCK-8 assay; type: cell-based; details: 10-200 μg/mL, 24 h, in words
Description: Referring to the method from a literature (Sinomenine improve diabetic nephropathy by inhibiting fibrosis and regulating the JAK2/STAT3/SOCS1 pathway in streptozotocin-induced diabetic rats. Life Sci. 2021; 265:118855), normal human kidney-2 cells (HK-02, HK-2) (Shanghai Cell Bank) were seeded into 96-well plates and administered with small peptides P1 and P2 at concentrations of 0 μg/mL, 10 μg/mL, 20 μg/mL, 50 μg/mL, 100 μg/mL, and 200 μg/mL. After 24-hour stimulation, the cytotoxicity was assessed by Cell Counting Kit-8 (CCK-8) assay.

Rat kidney = assay: Animal safety observation: rat kidney injury (serum blood urea nitrogen levels); type: in vivo; details: 14 days; for Blood Urea Nitrogen Levels: intragastric gavage, rat serum, individual rats (Rat 1-6)
Description: as §1

[5] = test system: normal human hepatic parenchymal L-02 cells; assay: Hepatotoxicity: cytotoxicity in L-02 cells by CCK-8 assay; type: cell-based; details: 10-200 μg/mL, 24 h, in words
Description: Referring to the method from a literature (Determination of emodin in L-02 cells and cell culture media with liquid chromatography-mass spectrometry: Application to a cellular toxicokinetic study. J Pharm Biomed Anal. 2012; 71:71-78), normal human hepatic parenchymal L-02 cells (obtained from Shanghai Cell Bank) were seeded into 96-well plates and treated with small peptides P1 and P2 at concentrations of 0 μg/mL, 10 μg/mL, 20 μg/mL, 50 μg/mL, 100 μg/mL, and 200 μg/mL. After 24-hour stimulation, the cytotoxicity was assessed by Cell Counting Kit-8 (CCK-8) assay.

[6] = 500 and 1000 mg/kg daily, rats, in words

In the case of “GASRIIGVDL [Small peptide P1, GASRIIGVDL]”, the Rat body weight ([1]; Day 1) is reported as 210 g and 214 g and 218 g and 217 g and 216 g (2×) and 213 g, the Rat body weight ([1]; Day 2) is reported as 212 g and 215 g (2×) and 219 g and 220 g and 222 g and 217 g and the Rat body weight ([1]; Day 3) is reported as 212 g and 216 g and 220 g and 221 g and 224 g and 209 g and 218 g. For the same sequence, the Rat body weight ([1]; Day 4) was 214 g and 218 g, the Rat body weight ([1]; Day 5) was 215 g and 220 g (2×) and 224 g and 228 g (2×) and 225 g and the Rat body weight ([1]; Day 6) was 215 g and 227 g and 224 g and 230 g and 229 g and 223 g and 228 g. For the same sequence, the Rat body weight ([1]; Day 7) was 216 g and 228 g and 229 g (2×) and 236 g and 231 g and 224 g, the Rat body weight ([1]; Day 8) was 218 g and 229 g and 232 g and 235 g and 233 g and 228 g and 231 g and the Rat body weight ([1]; Day 9) was 220 g and 229 g and 234 g (2×) and 238 g and 233 g and 230 g. For the same sequence, the Rat body weight ([1]; Day 10) was 225 g and 231 g and 237 g and 239 g and 238 g and 234 g and 236 g, the Rat body weight ([1]; Day 11) was 226 g and 232 g and 238 g and 241 g (2×) and 237 g and 239 g and the Rat body weight ([1]; Day 12) was 227 g and 233 g and 238 g and 243 g (2×) and 244 g and 239 g. For the same sequence, the Rat body weight ([1]; Day 13) was 228 g and 235 g and 239 g and 244 g (2×) and 248 g and 240 g, the Rat body weight ([1]; Day 14) was 230 g and 237 g and 240 g and 247 g and 249 g and 243 g (2×) and the Rat body weight ([1]; Day 15) was 235 g and 238 g and 242 g and 248 g and 250 g and 245 g (2×). The “effects on rat body weight” value ([1]; daily intragastric gavage for 14 days, in words) was “minimal effects”, the Ulcer index ([2]; 0.5 mg/kg at 2 h, 12 h and 22 h after modeling, 8 mice, ratio of ulcer area to gastric mucosal tissue area, Control group 58.3 ± 10.1) was 8.2 ± 3.1% and the Ulcer inhibition rate ([2]; 0.5 mg/kg at 2 h, 12 h and 22 h after modeling, percentage reduction in ulcer area compared to the Control group) was 85.9%. The “result compared to the mixture group” value ([2]; 0.5 mg/kg versus mixture 50 mg/kg, in words) was “better results than the mixture in larger dose”, the anti-ulcer effects ([2]; 0.5 mg/kg, in words) was “excellent anti-ulcer effects” and the mucosal repair effects (mucosal repair) was “found to have mucosal repair effects”. The “Alaninetransaminase Activity, Average” value (Rat liver; 500 mg/kg daily) was 27 IU/L, the “Alaninetransaminase Activity” value (Rat liver; 500 mg/kg daily) was 35 IU/L and 44 IU/L and 20 IU/L and 15 IU/L and 21 IU/L and 27 IU/L and the “Alaninetransaminase Activity, Average” value (Rat liver; 1000 mg/kg daily) was 39.83 IU/L. For the same sequence, the “Alaninetransaminase Activity” value (Rat liver; 1000 mg/kg daily) was 32 IU/L and 39 IU/L and 50 IU/L and 27 IU/L and 47 IU/L and 44 IU/L, the hepatotoxicity (Rat liver; [6]) was “without hepatotoxicity” and the Ulcer index ([3]; 0.5 mg/kg twice daily for 3 days, 10 rats, ratio of ulcer area to gastric mucosal tissue area, Control group 40.5 ± 5.3) was 5.8 ± 2.5%. For the same sequence, the Ulcer inhibition rate ([3]; 0.5 mg/kg twice daily for 3 days, percentage reduction in ulcer area compared to the Control group) was 85.7%, the anti-ulcer effects ([3]; P1, P2 0.5 mg/kg, mixture 50 mg/kg, in words) was “exhibit anti-ulcer effects” and the “P versus Positive control group” value ([3]; anti-ulcer effects compared to omeprazole 2.6 mg/kg, P1, P2 0.5 mg/kg, mixture 50 mg/kg) was greater than 0.05. For the same sequence, the “viability of normal human kidney cells HK-02 (HK-2)” value [4] was “no effect”, the nephrotoxicity ([4]; HK-2 cells) was “no nephrotoxicity” and the “Blood Urea Nitrogen Levels” value (Rat kidney; 500 mg/kg daily) was 25 mg/dL and 39 mg/dL and 29 mg/dL and 33 mg/dL and 36 mg/dL and 37 mg/dL. The “Blood Urea Nitrogen Levels” value (Rat kidney; 1000 mg/kg daily) was 28 mg/dL and 30 mg/dL (2×) and 32 mg/dL and 36 mg/dL and 34 mg/dL, the nephrotoxicity (Rat kidney; [6]) was “without hepatotoxicity and nephrotoxicity” and the “viability of normal human liver cells L-02” value [5] was “no effect”. The hepatotoxicity ([5]; L-02 cells) was “no hepatotoxicity”.
